The values that follow are results of earlier work, collected in patent publication US20230321091A1, “SUBSTITUTED PYRIDAZINONES FOR USE IN THE TREATMENT OF NEUROMUSCULAR DISEASES” (Edgewise Therapeutics, Inc., priority 2020, published 2023).

In the series the test system is embryos from zebrafish model of DMD.

As for `Cc1ccc(S(=O)(=O)NCc2ccccc2)cc1` [BTS, N-benzyl-p-tolyl-sulfonamide], the “protection of muscles from pathological muscle derangement” value is reported as “protect muscles from pathological muscle derangement”.
